Series [1] has as its target T1, human TRPM8 receptor expressed in transfected 293H cells (Homo sapiens, UniProt Q7Z2W7).
T1 construct: expressed in transfected cells; host or cells: 293H cells
Briefly: TRPM8 Human Transient Potential Ion Channel Cell Based Agonist Calcium Flux Assay (FLIPR). The following applies: Ca2+ mobilization, fluorometric detection, 293H cells; response relative to 3 μM icilin; read-out: TRPM8 agonist EC50. An excerpt: This example discloses results from TRPM8 Human Transient Potential Ion Channel Cell Based Agonist Calcium Flux Assay. Evaluation of the agonist activity of compounds at the human TRPM8 receptor expressed in transfected 293H cells, determined by measuring their effect on cytosolic Ca2+ ion mobilization using a fluorometric detection method.
Protocol: The cells are suspended in DMEM buffer (Invitrogen), then distributed in microplates at a density of 3×10^4 cells/well. The fluorescent probe (Fluo4 Direct, Invitrogen) in HBSS buffer (Invitrogen) complemented with 20 mM Hepes (Invitrogen) (pH 7.4) is then added into each well and equilibrated with the cells for 60 min at 37° C. then 15 min at 22° C. Thereafter, the assay plates are positioned in a microplate reader (CellLux, PerkinElmer) which is used for the addition of the test compound, reference agonist or HBSS buffer (basal control), and the measurements of changes in fluorescence intensity which varies proportionally to the free cytosolic Ca2+ ion concentration. For stimulated control measurements, Icilin at 3 μM is added in separate assay wells. The results are expressed as a percent of the control response to 3 μM icilin. The standard reference agonist is Icilin, which is tested in each experiment at several concentrations to generate a concentration-response curve from which its EC50 value is calculated. (Behrendt, H. J., Germann, T., Gillen, C and Hatt, H. and Jostock, R. (2004), Characterization of the mouse cold-menthol receptor TRPM8 and vanilloid receptor type-1 VR1 using a fluorometric imaging plate reader (FLIPR) assay, Br. J. Pharmacol., 141: 737.)
Data analysis: EC50 values were determined as the concentration of test substance required to produce half-maximal increases in [Ca^2+]. Maximal [Ca^2+] responses were measured as peak fluorescence intensity (FI) minus basal FI, and expressed as percentages of the maximum response to icilin. Data are given as means±s.e.m., unless otherwise stated.
The EC50 values (concentration producing a half-maximal response) and IC50 values (concentration causing a half-maximal inhibition of the control agonist response) were determined by non-linear regression analysis of the concentration-response curves generated with mean replicate values using Hill equation curve fitting:
where Y=response, A=left asymptote of the curve, D=right asymptote of the curve, C=compound concentration, and C50=EC50, and nH=slope factor.
(In general: Calcium flux is commonly read through the fluorescence of an indicator in the cells.)

A short description of series [2]: Solution state stability assay. The class given is physicochemical. Particulars: 50° C.; for aqueous stability / hydrolysis, comparison in words: buffer, 28 days; for % degradation at 28 days: HPLC. As to the method:
Compounds were incubated in the buffer media indicated (ingredients for making of PBS buffer and sodium citrate/citric acid buffer were obtained from Sigma-Aldrich, St. Louis, MO, USA). The reactions were conducted at either 50° C. and for 28 days. Samples were collected at specific time points and analyzed for % degradation of the parent compound based on UV/Vis analysis.
Methods: Samples were weighed using a Mettler Toledo XS105 analytical balance (accurate to +/−0.01 mg). Accurate dilutions were made with a P1000, P200, or P20 Gilson Pipetman, or an Eppendorf Maxipettor 1-10 mL pipettor. pH Measurements were made with a Hanna Instruments HI 4222 pH meter and a Hanna instruments HI 1330B micro pH probe. Samples were analyzed via high pressure liquid chromatography using an Agilent series 1100 HPLC instrument with a Grace Alltima column. Chromatograms were manually integrated. Individual chromatograms are assigned an automatic HPLC identification number.
Freshly prepared 1.0 mg/mL solution of each compound listed in Table # was allotted into two-dram clear glass vials. […] The vials were then stored in an oven set to 50° C. At the appropriate time points, the vials were removed from the oven, vortexed for 30 seconds and an aliquot (400 μL) was pipetted into an HPLC vial and quenched with 1% TFA in ACN (400 μL). […] For all samples, aliquots were taken after 28 days. Quenched vials were immediately analyzed via HPLC.

A short description of series [3]: Solubility assay in DI water. The class given is physicochemical. Particulars: thermodynamic from solid, HCl salts, visual, stepwise dilution from 200 mg/mL, sonication and vortex. How it is done: In order to determine the aqueous solubility of the compounds indicated, the HCl salts of the following compounds were incubated at 200 mg/mL in DI water followed by sonication for 60 seconds and then vortex stirring for 60 seconds. If insoluble material was observed, the sample was diluted to 150, 100, 50, 25, or 20 mg/mL until no insoluble material was observed. After each dilution, each sample was sonicated for 60 seconds, vortexed for 60 seconds and let equilibrate with occasional shaking for 30 minutes.

The mark [4] stands for this setting: pH = ~5.0 (0.2 M aqueous sodium citrate/citric acid buffer).
[5] abbreviates: pH = ~7.4 (1X Phosphate Buffered Saline).

pEC50: −log10 of the molar value. Counter-ions that a name gives are not always drawn. A value given as a limit tells only on which side of the number the result lay.

T1 sequence (Q7Z2W7 whole entry): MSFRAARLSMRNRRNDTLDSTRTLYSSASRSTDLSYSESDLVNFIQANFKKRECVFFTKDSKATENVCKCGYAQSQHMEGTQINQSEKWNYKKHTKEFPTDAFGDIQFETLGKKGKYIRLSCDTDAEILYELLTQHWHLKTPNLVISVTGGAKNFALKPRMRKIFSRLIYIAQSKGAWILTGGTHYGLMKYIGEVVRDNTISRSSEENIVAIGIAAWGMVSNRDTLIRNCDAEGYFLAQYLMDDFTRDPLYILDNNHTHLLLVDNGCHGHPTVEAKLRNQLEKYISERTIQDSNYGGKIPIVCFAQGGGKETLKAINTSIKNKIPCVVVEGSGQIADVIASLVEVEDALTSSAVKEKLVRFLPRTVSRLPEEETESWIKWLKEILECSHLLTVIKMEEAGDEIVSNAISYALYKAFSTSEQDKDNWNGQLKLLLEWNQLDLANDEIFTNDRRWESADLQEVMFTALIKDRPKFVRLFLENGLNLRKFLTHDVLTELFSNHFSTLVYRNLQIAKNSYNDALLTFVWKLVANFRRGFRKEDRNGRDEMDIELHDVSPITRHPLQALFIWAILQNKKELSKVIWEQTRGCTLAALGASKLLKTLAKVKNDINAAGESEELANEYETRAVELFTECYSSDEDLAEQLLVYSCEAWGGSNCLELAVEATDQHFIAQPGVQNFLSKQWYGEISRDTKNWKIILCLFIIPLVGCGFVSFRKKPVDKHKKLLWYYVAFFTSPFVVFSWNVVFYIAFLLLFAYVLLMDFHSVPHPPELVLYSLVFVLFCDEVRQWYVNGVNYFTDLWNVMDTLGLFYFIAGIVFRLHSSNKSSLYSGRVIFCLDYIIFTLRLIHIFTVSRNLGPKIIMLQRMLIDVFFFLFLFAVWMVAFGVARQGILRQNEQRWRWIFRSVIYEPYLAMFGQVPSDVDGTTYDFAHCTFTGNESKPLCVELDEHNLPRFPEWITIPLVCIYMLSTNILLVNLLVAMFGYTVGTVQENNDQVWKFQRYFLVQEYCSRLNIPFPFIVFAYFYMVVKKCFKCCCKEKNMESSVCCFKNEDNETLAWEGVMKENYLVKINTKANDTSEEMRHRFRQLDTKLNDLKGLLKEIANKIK

With `CC(C)[C@@H]1CC[C@@H](C)C[C@H]1C(=O)NCc1cc(CN)ccn1` [Compound 17, (1R,2S,5R)-N-((4-(aminomethyl)pyridin-2-yl)methyl)-2-isopropyl-5-methylcyclohexanecarboxamide hydrochloride], in series [1], the pEC50 (commonly the negative decadic logarithm of the EC50, by convention in mol/L) was 7.24.
With `CC(C)[C@@H]1CC[C@@H](C)C[C@H]1C(=O)NCc1ccccc1N1CCN(C(=O)CN)CC1` [Compound 9, (1R,2S,5R)-N-(2-(4-(2-aminoacetyl)piperazin-1-yl)benzyl)-2-isopropyl-5-methylcyclohexanecarboxamide dihydrochloride], the pEC50 in series [1] is < 5.00.
In the case of `CC(C)[C@@H]1CC[C@@H](C)C[C@H]1OCC(=O)N(C)c1cccc(CN)c1` [Aniline 3], the “aqueous stability / hydrolysis, comparison in words” value in series [2] is “more stable”. Moreover, the “% degradation at 28 days” value in series [2] (setting [4]) is ~0.4%; in series [2] (setting [5]) it was ~8.1%.
Turning to `CC(C)[C@@H]1CC[C@@H](C)C[C@H]1C(=O)NCc1ccc(CN(C)Cc2ccccc2)cc1` [Compound 19, (1R,2S,5R)-N-(4-((benzyl(methyl)amino)methyl)benzyl)-2-isopropyl-5-methylcyclohexanecarboxamide hydrochloride], in series [1], the pEC50 is 4.46.
`CC(C)[C@@H]1CC[C@@H](C)C[C@H]1C(=O)NCc1cccc(N2CCNCC2)c1` [Compound 5, (1R,2S,5R)-2-isopropyl-5-methyl-N-(3-(piperazin-1-yl)benzyl)cyclohexanecarboxamide dihydrochloride]: the pEC50 in series [1] is 6.66.
Same read-out and setting: the result for `CC(C)[C@@H]1CC[C@@H](C)C[C@H]1OCC(=O)N(C)Cc1cccc(CN(C)C)c1` [Compound 1, N-(3-((dimethylamino)methyl)benzyl)-2-(((1R,2S,5R)-2-isopropyl-5-methylcyclohexyl)oxy)-N-methylacetamide hydrochloride] reads 6.01.
In the case of `CC(C)[C@@H]1CC[C@@H](C)C[C@H]1C(=O)N(C)c1cccc(CN)c1` [Aniline 4], the entries for the “% degradation at 28 days” value in series [2] (setting [4]) and in series [2] (setting [5]) were ~23.5% and ~31.9%, respectively.
For `CC(C)[C@@H]1CC[C@@H](C)C[C@H]1OC(=O)N(C)c1cccc(CN)c1` [Aniline 2], the “% degradation at 28 days” value in series [2] (setting [4]) is recorded as ~24.3%; in series [2] (setting [5]), ~24.4%.
In the case of `CC(C)[C@@H]1CC[C@@H](C)C[C@H]1C(=O)NCc1ccc(C2CCNCC2)cc1.Cl` [Compound 16, (1R,2S,5R)-2-isopropyl-5-methyl-N-(4-(piperidin-4-yl)benzyl)cyclohexanecarboxamide hydrochloride], in series [1], the pEC50 was 6.46. Further, the solubility (commonly how much of the substance goes into solution per volume) at 30 min in series [3] (DI water) was ≥ 20 mg/mL.
Take `CC(C)[C@@H]1CC[C@@H](C)C[C@H]1C(=O)NCc1ccc(N2CCNCC2)cc1.Cl.Cl` [Compound 10, (1R,2S,5R)-2-isopropyl-5-methyl-N-(4-(piperazin-1-yl)benzyl)cyclohexanecarboxamide dihydrochloride]: the pEC50 in series [1] was 6.96. Further, in series [3], the solubility at 30 min was ≥ 200 mg/mL.
In the case of `CC(C)[C@@H]1CC[C@@H](C)C[C@H]1C(=O)N(C)Cc1cccc(CN(C)C)c1.Cl` [Compound 3, (1R,2S,5R)-N-(3-((dimethylamino)methyl)benzyl)-2-isopropyl-N,5-dimethylcyclohexanecarboxamide hydrochloride], the pEC50 in series [1] is 6.12. In series [2], the “aqueous stability / hydrolysis, comparison in words” value is “greatest aqueous stability”. In addition, the “% degradation at 28 days” value in series [2] (setting [4]) and in series [2] (setting [5]) was “Noneª None^b” each time.
With `CC(C)[C@@H]1CC[C@@H](C)C[C@H]1C(=O)NCc1cccc(N2CCN(C(=O)CN)CC2)c1` [Compound 6, (1R,2S,5R)-N-(3-(4-(2-aminoacetyl)piperazin-1-yl)benzyl)-2-isopropyl-5-methylcyclohexanecarboxamide dihydrochloride], in series [1], the pEC50 was 6.42.
For the compound `CC(C)[C@@H]1CC[C@@H](C)C[C@H]1C(=O)NCc1ccc(CN)cc1F` [Compound 14, (1R,2S,5R)-N-(4-(aminomethyl)-2-fluorobenzyl)-2-isopropyl-5-methylcyclohexanecarboxamide hydrochloride], the pEC50 in series [1] was 7.02.
As to `CC(C)[C@@H]1CC[C@@H](C)C[C@H]1C(=O)NCc1ccc(CN2CCOCC2)cc1` [Compound 22, (1R,2S,5R)-2-isopropyl-5-methyl-N-(4-(morpholinomethyl)benzyl)cyclohexanecarboxamide hydrochloride], the pEC50 in series [1] was 6.05.
Turning to `CC(C)[C@@H]1CC[C@@H](C)C[C@H]1C(=O)NCc1ccc(CNC(=O)CN)cc1` [Compound 7, (1R,2S,5R)-N-(4-((2-aminoacetamido)methyl)benzyl)-2-isopropyl-5-methylcyclohexanecarboxamide hydrochloride], the pEC50 in series [1] is 6.29.
In the case of `CC(C)[C@@H]1CC[C@@H](C)C[C@H]1C(=O)NCc1ccc(CCN)cc1` [Compound 12, (1R,2S,5R)-N-(4-(2-aminoethyl)benzyl)-2-isopropyl-5-methylcyclohexanecarboxamide hydrochloride], the pEC50 in series [1] was 6.70.
For `CC(C)[C@@H]1CC[C@@H](C)C[C@H]1C(=O)NCc1ccc(CN2CCCC2)cc1` [Compound 20, (1R,2S,5R)-2-isopropyl-5-methyl-N-(4-(pyrrolidin-1-ylmethyl)benzyl)cyclohexanecarboxamide hydrochloride], in series [1], the pEC50 was 6.82.
For `CC(C)[C@@H]1CC[C@@H](C)C[C@H]1C(=O)NCc1ccc(COC2CCNCC2)cc1` [Compound 18, (1R,2S,5R)-2-isopropyl-5-methyl-N-(4-((piperidin-4-yloxy)methyl)benzyl)cyclohexanecarboxamide hydrochloride], the negative-log EC50 (pEC50) in series [1] is 6.68.
Consider `CC(N)c1ccc(CNC(=O)[C@@H]2C[C@H](C)CC[C@H]2C(C)C)cc1` (stereo partly drawn) [Compound 13, (1R,2S,5R)-N-(4-(1-aminoethyl)benzyl)-2-isopropyl-5-methylcyclohexanecarboxamide hydrochloride], for which the pEC50 in series [1] was 6.82.
In the case of `CC(C)[C@@H]1CC[C@@H](C)C[C@H]1OCC(=O)NCc1ccc(CN)cc1` [Compound 2, N-(4-(aminomethyl)benzyl)-2-(((1R,2S,5R)-2-isopropyl-5-methylcyclohexyl)oxy)acetamide hydrochloride], in series [1], the pEC50 is 5.48.
Consider `CC(C)[C@@H]1CC[C@@H](C)C[C@H]1OC(=O)Nc1cccc(CN)c1` [Aniline 1], for which the “% degradation at 28 days” value is ~36.2% in series [2] (setting [4]) and ~41.2% in series [2] (setting [5]).
As for `CC(C)[C@@H]1CC[C@@H](C)C[C@H]1C(=O)NCc1ccc(CN(C)C)cc1` [Compound 21, (1R,2S,5R)-N-(4-((dimethylamino)methyl)benzyl)-2-isopropyl-5-methylcyclohexanecarboxamide hydrochloride], the pEC50 in series [1] was 6.38.
Regarding `CC(C)[C@@H]1CC[C@@H](C)C[C@H]1C(=O)NCc1ccc2c(c1)CCNC2` [Compound 11, (1R,2S,5R)-2-isopropyl-5-methyl-N-((1,2,3,4-tetrahydroisoquinolin-6-yl)methyl)cyclohexanecarboxamide hydrochloride], in series [1], the pEC50 is 6.77.

The values above are taken from US20240199564A1, “TRPM8 AGONISTS AS COOLING AGENTS AND FOR THE TREATMENT OF DISEASE” (Concentric Analgesics, Inc., priority 2021, published 2024).
